Experimental data published in US4492651A, “Cyclic hexapeptides” (American Home Products Corporation, priority 1983, dated 1985).
Square brackets hold non-standard residues; d marks the D form.

System: growth hormone release
Assay: suppression of growth hormone release in arginine stimulated rats (plasma GH by radioimmunoassay)
Assay type: in vivo
Settings: Nembutal-anaesthetised albino male rats, blood 15 min after peptide
Protocol: The potent inhibition of growth hormone secretion was established for the compounds of this invention by subjecting the representative product of Example 5 to the following standard procedure involving suppression of growth hormone release in arginine stimulated rats:
Albino male rats are administered Nembutal intraperitoneally at a dose of 50 milligrams per kilogram. Fifteen minutes later a subcutaneous injection of the product of Example 5 is administered. Ten minutes later 0.5 milliliters of arginine (300 milligrams per milliliter, pH 7.2) is injected into the heart. Five minutes after receipt of the arginine the rats are decapitated and blood is collected into Trasylol-EDTA. An appropriate aliquot is assayed for growth hormone (GH) by radioimmuno-assay. The results of the test procedure were compared with those obtained in the same manner with Compound 8 of Table 2 disclosed by Veber et al., loc. cit., as follows: […]

## cyclo(PF[dW]KTF) [Compound 8]
Dose of peptide 0.1 μg/kg subcutaneous
  Plasma GH Levels: 278 ± 89 ng/mL
Dose of peptide 1.0 μg/kg subcutaneous
  Plasma GH Levels: 169 ± 19 ng/mL
Dose of peptide 10.0 μg/kg subcutaneous
  Plasma GH Levels: 126 ± 6 ng/mL
